# Test results from the kinase profiling compilation of Christmann-Franck et al. (2016).
# Tests used:
# Test in all cases: KINOMEscan competition binding
# LTK (human) = LTK (human) (UniProt P29376); conditions: compound 1.0 µM
# CDC42BPB (human) = CDC42BPB (human) (UniProt Q9Y5S2); conditions: compound 1.0 µM
# [1] = target: KIT (human), P10721 [V559D/T670I]; conditions: for kinase still bound, per cent of control: compound 1.0 µM
# FLT3 (human) = FLT3 (human) (UniProt P36888); conditions: compound 1.0 µM
# RPS6KA4 KD1 (human) = RPS6KA4 KD1 (human) (UniProt O75676); conditions: compound 1.0 µM
# RPS6KA4 KD1 (human), sequence (O75676 whole entry, looked up): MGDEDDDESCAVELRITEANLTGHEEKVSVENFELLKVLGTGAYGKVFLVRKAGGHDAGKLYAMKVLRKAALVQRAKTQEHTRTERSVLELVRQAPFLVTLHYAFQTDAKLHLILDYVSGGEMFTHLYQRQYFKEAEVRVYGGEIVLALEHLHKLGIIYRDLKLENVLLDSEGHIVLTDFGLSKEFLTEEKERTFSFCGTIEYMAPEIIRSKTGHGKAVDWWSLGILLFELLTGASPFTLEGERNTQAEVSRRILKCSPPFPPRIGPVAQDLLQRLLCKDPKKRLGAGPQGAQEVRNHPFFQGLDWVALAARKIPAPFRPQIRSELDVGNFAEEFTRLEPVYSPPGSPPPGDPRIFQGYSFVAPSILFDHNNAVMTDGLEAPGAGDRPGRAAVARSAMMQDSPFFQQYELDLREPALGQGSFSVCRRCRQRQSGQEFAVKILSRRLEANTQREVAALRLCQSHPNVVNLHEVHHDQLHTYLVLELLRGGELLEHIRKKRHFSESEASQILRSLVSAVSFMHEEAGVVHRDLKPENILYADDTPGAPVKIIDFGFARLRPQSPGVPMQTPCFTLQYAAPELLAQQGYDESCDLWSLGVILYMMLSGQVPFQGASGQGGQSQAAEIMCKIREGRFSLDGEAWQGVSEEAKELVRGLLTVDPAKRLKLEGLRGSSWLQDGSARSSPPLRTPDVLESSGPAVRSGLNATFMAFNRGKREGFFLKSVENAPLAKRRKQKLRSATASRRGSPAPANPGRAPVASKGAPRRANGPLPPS
# RIPK1 (human) = RIPK1 (human) (UniProt Q13546); conditions: compound 1.0 µM
# RIPK1 (human), sequence (Q13546 whole entry, looked up): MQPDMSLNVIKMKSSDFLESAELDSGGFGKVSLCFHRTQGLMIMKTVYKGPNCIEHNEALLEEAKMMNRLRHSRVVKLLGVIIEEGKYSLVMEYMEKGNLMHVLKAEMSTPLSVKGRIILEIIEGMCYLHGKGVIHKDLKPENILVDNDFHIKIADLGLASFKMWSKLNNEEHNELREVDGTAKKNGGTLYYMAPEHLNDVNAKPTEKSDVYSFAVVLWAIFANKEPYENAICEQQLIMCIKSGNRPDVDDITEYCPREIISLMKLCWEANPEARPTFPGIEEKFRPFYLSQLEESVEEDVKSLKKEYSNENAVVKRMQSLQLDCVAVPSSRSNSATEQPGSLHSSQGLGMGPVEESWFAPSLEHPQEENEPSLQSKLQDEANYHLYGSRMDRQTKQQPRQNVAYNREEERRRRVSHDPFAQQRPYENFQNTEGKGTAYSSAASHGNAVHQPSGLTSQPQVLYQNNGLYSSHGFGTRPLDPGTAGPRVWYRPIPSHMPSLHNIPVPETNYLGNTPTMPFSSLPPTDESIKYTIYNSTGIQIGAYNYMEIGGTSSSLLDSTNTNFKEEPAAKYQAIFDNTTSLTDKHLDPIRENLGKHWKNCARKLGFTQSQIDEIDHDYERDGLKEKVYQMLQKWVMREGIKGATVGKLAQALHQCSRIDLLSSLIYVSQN
# [2] = target: TYK2 JH2 pseudokinase (human) (UniProt P29597); conditions: compound 1.0 µM
# MAK (human) = MAK (human) (UniProt P20794); conditions: compound 1.0 µM
# PKN1 (human) = PKN1 (human) (UniProt Q16512); conditions: compound 1.0 µM
# CHEK2 (human) = CHEK2 (human) (UniProt O96017); conditions: compound 1.0 µM
# CHEK2 (human), sequence (O96017 whole entry, looked up): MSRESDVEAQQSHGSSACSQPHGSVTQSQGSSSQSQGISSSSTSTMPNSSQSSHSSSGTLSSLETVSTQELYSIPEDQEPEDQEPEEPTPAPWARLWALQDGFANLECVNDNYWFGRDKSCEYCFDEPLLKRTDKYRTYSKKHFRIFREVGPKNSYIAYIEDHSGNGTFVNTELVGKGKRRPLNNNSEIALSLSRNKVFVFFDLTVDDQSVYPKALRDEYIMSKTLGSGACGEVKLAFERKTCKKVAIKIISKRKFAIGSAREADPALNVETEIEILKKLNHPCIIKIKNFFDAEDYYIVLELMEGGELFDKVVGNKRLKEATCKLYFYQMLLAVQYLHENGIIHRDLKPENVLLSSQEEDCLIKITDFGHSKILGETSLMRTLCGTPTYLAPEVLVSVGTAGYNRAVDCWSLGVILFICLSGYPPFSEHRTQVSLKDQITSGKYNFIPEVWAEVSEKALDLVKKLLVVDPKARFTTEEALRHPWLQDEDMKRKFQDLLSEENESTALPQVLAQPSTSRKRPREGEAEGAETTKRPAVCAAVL
# STK32B (human) = STK32B (human) (UniProt Q9NY57); conditions: compound 1.0 µM
# HIPK3 (human) = HIPK3 (human) (UniProt Q9H422); conditions: compound 1.0 µM
# CSNK1G3 (human) = CSNK1G3 (human) (UniProt Q9Y6M4); conditions: compound 1.0 µM
# MYO3A (human) = MYO3A (human) (UniProt Q8NEV4); conditions: compound 1.0 µM
# [3] = system: RET (human), P07949 [M918T]; conditions: compound 1.0 µM
# CASK (human) = CASK (human) (UniProt O14936); conditions: compound 1.0 µM
# STK3 (human) = STK3 (human) (UniProt Q13188); conditions: compound 1.0 µM
# TGFBR1 (human) = TGFBR1 (human) (UniProt P36897); conditions: compound 1.0 µM
# RPS6KA6 KD1 (human) = RPS6KA6 KD1 (human) (UniProt Q9UK32); conditions: compound 1.0 µM
# CHEK1 (human) = CHEK1 (human) (UniProt O14757); conditions: compound 1.0 µM
# CHEK1 (human), sequence (O14757 whole entry, looked up): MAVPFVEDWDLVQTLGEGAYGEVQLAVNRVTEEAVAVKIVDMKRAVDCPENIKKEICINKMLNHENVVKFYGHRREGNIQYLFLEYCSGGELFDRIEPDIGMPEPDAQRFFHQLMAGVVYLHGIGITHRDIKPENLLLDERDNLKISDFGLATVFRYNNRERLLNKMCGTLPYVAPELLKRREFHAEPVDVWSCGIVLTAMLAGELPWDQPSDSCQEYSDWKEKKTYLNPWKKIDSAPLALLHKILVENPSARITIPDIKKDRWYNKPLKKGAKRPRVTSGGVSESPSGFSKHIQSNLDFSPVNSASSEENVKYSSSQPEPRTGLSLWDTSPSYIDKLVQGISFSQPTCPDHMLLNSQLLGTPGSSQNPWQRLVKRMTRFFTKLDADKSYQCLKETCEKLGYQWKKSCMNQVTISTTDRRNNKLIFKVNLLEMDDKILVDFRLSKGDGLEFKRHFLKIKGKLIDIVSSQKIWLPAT
# [4] = system: PIK3CA (human), P42336 [Q546K]; conditions: compound 1.0 µM
# PRKD1 (human) = PRKD1 (human) (UniProt Q15139); conditions: compound 1.0 µM
# CSNK1G1 (human) = CSNK1G1 (human) (UniProt Q9HCP0); conditions: compound 1.0 µM
# CSNK1G1 (human), sequence (Q9HCP0 whole entry, looked up): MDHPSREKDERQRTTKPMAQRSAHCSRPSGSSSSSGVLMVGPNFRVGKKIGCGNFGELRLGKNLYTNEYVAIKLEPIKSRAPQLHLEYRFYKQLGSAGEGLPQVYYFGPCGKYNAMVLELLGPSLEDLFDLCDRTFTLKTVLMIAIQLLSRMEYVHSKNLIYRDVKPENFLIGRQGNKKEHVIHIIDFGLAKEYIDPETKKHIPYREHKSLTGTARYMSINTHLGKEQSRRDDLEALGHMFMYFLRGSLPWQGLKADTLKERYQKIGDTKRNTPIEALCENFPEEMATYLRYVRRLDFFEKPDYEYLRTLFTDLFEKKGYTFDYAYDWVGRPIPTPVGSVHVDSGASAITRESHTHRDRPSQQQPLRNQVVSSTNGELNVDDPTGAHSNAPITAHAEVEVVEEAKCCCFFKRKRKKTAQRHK
# [5] = system: FLT3 (human), P36888 [R834Q]; conditions: compound 1.0 µM
# MAPK6 (human) = MAPK6 (human) (UniProt Q16659); conditions: for kinase still bound, per cent of control: compound 1.0 µM
# MAP2K1 (human) = MAP2K1 (human) (UniProt Q02750); conditions: compound 1.0 µM
# ACVR1B (human) = ACVR1B (human) (UniProt P36896); conditions: compound 1.0 µM
# ACVR1B (human), sequence (P36896 whole entry, looked up): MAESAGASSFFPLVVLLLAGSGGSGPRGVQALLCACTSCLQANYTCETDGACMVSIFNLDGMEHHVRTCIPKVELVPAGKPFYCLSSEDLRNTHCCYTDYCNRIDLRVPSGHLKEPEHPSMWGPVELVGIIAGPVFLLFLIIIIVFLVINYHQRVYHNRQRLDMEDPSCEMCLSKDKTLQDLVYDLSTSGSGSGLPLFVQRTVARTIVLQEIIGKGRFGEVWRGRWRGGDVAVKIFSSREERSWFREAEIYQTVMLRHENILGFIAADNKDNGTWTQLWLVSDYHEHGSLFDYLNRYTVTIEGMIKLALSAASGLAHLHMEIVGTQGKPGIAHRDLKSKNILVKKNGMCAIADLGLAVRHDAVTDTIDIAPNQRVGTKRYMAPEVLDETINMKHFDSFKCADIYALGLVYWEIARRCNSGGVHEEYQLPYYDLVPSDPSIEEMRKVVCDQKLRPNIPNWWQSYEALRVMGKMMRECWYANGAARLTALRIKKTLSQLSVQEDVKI
# PHKG1 (human) = PHKG1 (human) (UniProt Q16816); conditions: compound 1.0 µM
# CDC42BPA (human) = CDC42BPA (human) (UniProt Q5VT25); conditions: compound 1.0 µM
# BRSK2 (human) = BRSK2 (human) (UniProt Q8IWQ3); conditions: compound 1.0 µM
# BRSK2 (human), sequence (Q8IWQ3 whole entry, looked up): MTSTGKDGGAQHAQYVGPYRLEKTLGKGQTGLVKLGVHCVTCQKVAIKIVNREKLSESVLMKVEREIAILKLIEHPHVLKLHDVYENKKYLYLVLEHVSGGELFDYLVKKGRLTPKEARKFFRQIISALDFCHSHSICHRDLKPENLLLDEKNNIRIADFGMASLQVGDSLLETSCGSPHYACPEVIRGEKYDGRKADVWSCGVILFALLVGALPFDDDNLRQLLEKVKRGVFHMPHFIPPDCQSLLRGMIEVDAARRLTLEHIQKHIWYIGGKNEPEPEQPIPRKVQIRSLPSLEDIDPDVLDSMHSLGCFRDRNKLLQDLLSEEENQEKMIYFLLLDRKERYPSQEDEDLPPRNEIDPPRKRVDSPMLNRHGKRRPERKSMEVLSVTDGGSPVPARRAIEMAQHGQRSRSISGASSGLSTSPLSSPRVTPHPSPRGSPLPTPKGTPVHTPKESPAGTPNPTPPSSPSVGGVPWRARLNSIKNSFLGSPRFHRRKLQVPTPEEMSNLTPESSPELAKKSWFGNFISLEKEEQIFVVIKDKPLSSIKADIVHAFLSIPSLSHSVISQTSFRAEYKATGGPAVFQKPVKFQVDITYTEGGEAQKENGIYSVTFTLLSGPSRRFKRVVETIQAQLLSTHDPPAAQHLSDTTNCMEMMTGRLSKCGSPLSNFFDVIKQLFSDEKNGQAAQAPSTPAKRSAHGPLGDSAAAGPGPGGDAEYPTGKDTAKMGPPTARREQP
# STK25 (human) = STK25 (human) (UniProt O00506); conditions: compound 1.0 µM
# SGK3 (human) = SGK3 (human) (UniProt Q96BR1); conditions: compound 1.0 µM
# PAK3 (human) = PAK3 (human) (UniProt O75914); conditions: compound 1.0 µM
# CSF1R (human) = CSF1R (human) (UniProt P07333); conditions: compound 1.0 µM
# RPS6KA2 KD2 (human) = RPS6KA2 KD2 (human) (UniProt Q15349); conditions: compound 1.0 µM
# CLK4 (human) = CLK4 (human) (UniProt Q9HAZ1); conditions: compound 1.0 µM
# PRKD3 (human) = PRKD3 (human) (UniProt O94806); conditions: compound 1.0 µM
# PHKG2 (human) = PHKG2 (human) (UniProt P15735); conditions: compound 1.0 µM
# DCLK1 (human) = DCLK1 (human) (UniProt O15075); conditions: compound 1.0 µM
# DSTYK (human) = DSTYK (human) (UniProt Q6XUX3); conditions: compound 1.0 µM
# INSRR (human) = INSRR (human) (UniProt P14616); conditions: compound 1.0 µM
# IKBKB (human) = IKBKB (human) (UniProt O14920); conditions: compound 1.0 µM
# IKBKB (human), sequence (O14920 whole entry, looked up): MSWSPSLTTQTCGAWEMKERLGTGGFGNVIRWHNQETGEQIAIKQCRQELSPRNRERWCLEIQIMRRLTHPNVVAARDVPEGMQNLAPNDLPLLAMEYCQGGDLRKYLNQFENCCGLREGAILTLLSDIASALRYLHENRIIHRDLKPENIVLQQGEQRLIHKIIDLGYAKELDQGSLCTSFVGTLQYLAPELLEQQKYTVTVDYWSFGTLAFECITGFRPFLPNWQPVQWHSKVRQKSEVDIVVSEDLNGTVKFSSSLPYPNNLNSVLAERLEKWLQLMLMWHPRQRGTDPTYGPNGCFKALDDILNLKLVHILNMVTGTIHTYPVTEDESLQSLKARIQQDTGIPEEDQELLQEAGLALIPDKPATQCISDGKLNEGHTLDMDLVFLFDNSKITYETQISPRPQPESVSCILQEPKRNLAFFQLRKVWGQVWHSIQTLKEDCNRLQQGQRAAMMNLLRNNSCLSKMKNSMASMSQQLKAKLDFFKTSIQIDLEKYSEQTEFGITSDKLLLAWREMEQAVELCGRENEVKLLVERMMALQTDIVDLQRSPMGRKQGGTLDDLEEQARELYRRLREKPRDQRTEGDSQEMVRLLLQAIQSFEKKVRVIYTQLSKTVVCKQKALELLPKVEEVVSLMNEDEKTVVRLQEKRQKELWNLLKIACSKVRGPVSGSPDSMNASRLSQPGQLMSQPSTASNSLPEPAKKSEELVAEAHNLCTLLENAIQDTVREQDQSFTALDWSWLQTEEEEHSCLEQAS
compound,measurement,setting,value
CN(C)C/C=C/C(=O)Nc1cccc(C(=O)Nc2ccc(Nc3nccc(/C(C#N)=C4\Nc5ccccc5S4)n3)cc2)c1,"kinase still bound, per cent of control",LTK (human),100%
same,"kinase still bound, per cent of control",CDC42BPB (human),100%
same,Kd,[1],160 nM
same,"kinase still bound, per cent of control",[1],6.6%
same,"kinase still bound, per cent of control",FLT3 (human),23%
same,"kinase still bound, per cent of control",RPS6KA4 KD1 (human),89%
same,"kinase still bound, per cent of control",RIPK1 (human),85%
same,"kinase still bound, per cent of control",[2],33%
same,"kinase still bound, per cent of control",MAK (human),93%
same,"kinase still bound, per cent of control",PKN1 (human),92%
same,"kinase still bound, per cent of control",CHEK2 (human),100%
same,"kinase still bound, per cent of control",STK32B (human),99%
same,"kinase still bound, per cent of control",HIPK3 (human),85%
same,"kinase still bound, per cent of control",CSNK1G3 (human),37%
same,"kinase still bound, per cent of control",MYO3A (human),100%
same,"kinase still bound, per cent of control",[3],17%
same,"kinase still bound, per cent of control",CASK (human),100%
same,"kinase still bound, per cent of control",STK3 (human),91%
same,"kinase still bound, per cent of control",TGFBR1 (human),97%
same,"kinase still bound, per cent of control",RPS6KA6 KD1 (human),100%
same,"kinase still bound, per cent of control",CHEK1 (human),100%
same,"kinase still bound, per cent of control",[4],100%
same,"kinase still bound, per cent of control",PRKD1 (human),100%
same,"kinase still bound, per cent of control",CSNK1G1 (human),92%
same,"kinase still bound, per cent of control",[5],100%
same,"kinase still bound, per cent of control",MAPK6 (human),27%
same,"kinase still bound, per cent of control",MAP2K1 (human),100%
same,"kinase still bound, per cent of control",ACVR1B (human),96%
same,"kinase still bound, per cent of control",PHKG1 (human),94%
same,"kinase still bound, per cent of control",CDC42BPA (human),98%
same,"kinase still bound, per cent of control",BRSK2 (human),100%
same,"kinase still bound, per cent of control",STK25 (human),100%
same,"kinase still bound, per cent of control",SGK3 (human),97%
same,"kinase still bound, per cent of control",PAK3 (human),84%
same,"kinase still bound, per cent of control",CSF1R (human),82%
same,"kinase still bound, per cent of control",RPS6KA2 KD2 (human),100%
same,"kinase still bound, per cent of control",CLK4 (human),64%
same,"kinase still bound, per cent of control",PRKD3 (human),100%
same,"kinase still bound, per cent of control",PHKG2 (human),100%
same,"kinase still bound, per cent of control",DCLK1 (human),100%
same,"kinase still bound, per cent of control",DSTYK (human),100%
same,"kinase still bound, per cent of control",INSRR (human),87%
same,"kinase still bound, per cent of control",IKBKB (human),87%
CN(C)C/C=C/C(=O)Nc1cccc(C(=O)Nc2ccc(Nc3nccc(-c4cccnc4)n3)cc2)c1,"kinase still bound, per cent of control",LTK (human),100%
same,"kinase still bound, per cent of control",CDC42BPB (human),93%
same,"kinase still bound, per cent of control",[1],9.8%
same,"kinase still bound, per cent of control",FLT3 (human),64%
same,"kinase still bound, per cent of control",RPS6KA4 KD1 (human),82%
same,"kinase still bound, per cent of control",RIPK1 (human),18%
same,"kinase still bound, per cent of control",[2],5.8%
same,"kinase still bound, per cent of control",MAK (human),5.6%
same,"kinase still bound, per cent of control",PKN1 (human),100%
same,"kinase still bound, per cent of control",CHEK2 (human),100%
same,"kinase still bound, per cent of control",STK32B (human),100%
same,"kinase still bound, per cent of control",HIPK3 (human),5.7%
same,"kinase still bound, per cent of control",CSNK1G3 (human),66%
same,"kinase still bound, per cent of control",MYO3A (human),81%
same,"kinase still bound, per cent of control",[3],100%
same,"kinase still bound, per cent of control",CASK (human),100%
same,"kinase still bound, per cent of control",STK3 (human),87%
same,"kinase still bound, per cent of control",TGFBR1 (human),86%
same,"kinase still bound, per cent of control",RPS6KA6 KD1 (human),88%
same,"kinase still bound, per cent of control",CHEK1 (human),100%
same,"kinase still bound, per cent of control",[4],100%
same,"kinase still bound, per cent of control",PRKD1 (human),100%
same,"kinase still bound, per cent of control",CSNK1G1 (human),69%
same,"kinase still bound, per cent of control",[5],74%
same,Kd,MAPK6 (human),22 nM
same,"kinase still bound, per cent of control",MAPK6 (human),0.4%
same,"kinase still bound, per cent of control",MAP2K1 (human),46%
same,"kinase still bound, per cent of control",ACVR1B (human),86%
same,"kinase still bound, per cent of control",PHKG1 (human),91%
same,"kinase still bound, per cent of control",CDC42BPA (human),100%
same,"kinase still bound, per cent of control",BRSK2 (human),98%
same,"kinase still bound, per cent of control",STK25 (human),58%
same,"kinase still bound, per cent of control",SGK3 (human),100%
same,"kinase still bound, per cent of control",PAK3 (human),100%
same,"kinase still bound, per cent of control",CSF1R (human),52%
same,"kinase still bound, per cent of control",RPS6KA2 KD2 (human),92%
same,"kinase still bound, per cent of control",CLK4 (human),16%
same,"kinase still bound, per cent of control",PRKD3 (human),100%
same,"kinase still bound, per cent of control",PHKG2 (human),64%
same,"kinase still bound, per cent of control",DCLK1 (human),96%
same,"kinase still bound, per cent of control",DSTYK (human),100%
same,"kinase still bound, per cent of control",INSRR (human),100%
same,"kinase still bound, per cent of control",IKBKB (human),48%
Cc1cc(NC(=O)c2cccc(NC(=O)/C=C/CN(C)C)c2)ccc1Nc1nccc(-c2cccnc2)n1,"kinase still bound, per cent of control",LTK (human),100%
same,"kinase still bound, per cent of control",CDC42BPB (human),68%
same,"kinase still bound, per cent of control",[1],4.4%
same,"kinase still bound, per cent of control",FLT3 (human),77%
same,"kinase still bound, per cent of control",RPS6KA4 KD1 (human),79%
same,"kinase still bound, per cent of control",RIPK1 (human),51%
same,"kinase still bound, per cent of control",[2],80%
same,"kinase still bound, per cent of control",MAK (human),100%
same,"kinase still bound, per cent of control",PKN1 (human),94%
same,"kinase still bound, per cent of control",CHEK2 (human),95%
same,"kinase still bound, per cent of control",STK32B (human),90%
same,"kinase still bound, per cent of control",HIPK3 (human),100%
same,"kinase still bound, per cent of control",CSNK1G3 (human),100%
same,"kinase still bound, per cent of control",MYO3A (human),81%
same,"kinase still bound, per cent of control",[3],90%
same,"kinase still bound, per cent of control",CASK (human),100%
same,"kinase still bound, per cent of control",STK3 (human),48%
same,"kinase still bound, per cent of control",TGFBR1 (human),89%
same,"kinase still bound, per cent of control",RPS6KA6 KD1 (human),100%
same,"kinase still bound, per cent of control",CHEK1 (human),98%
same,"kinase still bound, per cent of control",[4],100%
same,"kinase still bound, per cent of control",PRKD1 (human),100%
same,"kinase still bound, per cent of control",CSNK1G1 (human),100%
same,"kinase still bound, per cent of control",[5],100%
same,"kinase still bound, per cent of control",MAPK6 (human),37%
same,"kinase still bound, per cent of control",MAP2K1 (human),94%
same,"kinase still bound, per cent of control",ACVR1B (human),88%
same,"kinase still bound, per cent of control",PHKG1 (human),87%
same,"kinase still bound, per cent of control",CDC42BPA (human),100%
same,"kinase still bound, per cent of control",BRSK2 (human),99%
same,"kinase still bound, per cent of control",STK25 (human),92%
same,"kinase still bound, per cent of control",SGK3 (human),48%
same,"kinase still bound, per cent of control",PAK3 (human),100%
same,"kinase still bound, per cent of control",CSF1R (human),8.6%
same,"kinase still bound, per cent of control",RPS6KA2 KD2 (human),100%
same,"kinase still bound, per cent of control",CLK4 (human),93%
same,"kinase still bound, per cent of control",PRKD3 (human),80%
same,"kinase still bound, per cent of control",PHKG2 (human),89%
same,"kinase still bound, per cent of control",DCLK1 (human),100%
same,"kinase still bound, per cent of control",DSTYK (human),100%
same,"kinase still bound, per cent of control",INSRR (human),100%
same,"kinase still bound, per cent of control",IKBKB (human),99%
